Converted amounts (≈) assume the structure as drawn. Where a name gives a salt, the structure may show the parent alone. Read-outs that look alike come from different tables or passages of the source.
Assays:
S. aureus 133 [1] = assay: Minimum inhibitory concentration (MIC), S. aureus 133; type: cell-based
Experimental: (§1) Determination of the Minimum Inhibitory Concentration (MIC)
(§2) The minimum inhibitory concentration (MIC) is the minimum concentration of an antibiotic with which the growth of a test microbe is inhibited over 18-24 h. The inhibitor concentration can in these cases be determined by standard microbiological methods (see, for example, The National Committee for Clinical Laboratory Standards. Methods for dilution antimicrobial susceptibility tests for bacteria that grow aerobically; approved standard-fifth edition. NCCLS document M7-A5 [ISBN 1-56238-394-9]. NCCLS, 940 West Valley Road, Suite 1400, Wayne, Pa. 19087-1898 USA, 2000). The MIC of the compounds of the invention is determined in the liquid dilution test on the 96-well microtitre plate scale. The bacterial microbes are cultivated in a minimal medium (18.5 mM Na2HPO4, 5.7 mM KH2PO4, 9.3 mM NH4Cl, 2.8 mM MgSO4, 17.1 mM NaCl, 0.033 μg/ml of thiamine hydrochloride, 1.2 μg/ml of nicotinic acid, 0.003 μg/ml of biotin, 1% glucose, 25 μg/ml of each proteinogenic amino acid with the exception of phenylalanine; [H.-P. Kroll; unpublished]) with addition of 0.4% BH broth (test medium). In the case of Enterococcus faecium L4001, heat-inactivated fetal calf serum (FCS; GibcoBRL, Germany) is added to the test medium in a final concentration of 10%. Overnight cultures of the test microbes are diluted to an OD578 of 0.001 (to 0.01 in the case of enterococci) in fresh test medium, and incubated 1:1 with dilutions of the test substances (1:2 dilution steps) in test medium (200 μl final volume). The cultures are incubated at 37° C. for 18-24 hours; enterococci in the presence of 5% CO2
(§3) The lowest substance concentration in each case at which no visible bacterial growth occurs any more is defined as the MIC.
(§4) Alternative Method for Determining the Minimum Inhibitory Concentration (MIC)
(§5) The minimum inhibitory concentration (MIC) is the minimum concentration of an antibiotic with which the growth of a test microbe is inhibited over 18-24 h. The inhibitor concentration can in these cases be determined by standard microbiological methods with modified medium in an agar dilution test (see, for example, The National Committee for Clinical Laboratory Standards. Methods for dilution antimicrobial susceptibility tests for bacteria that grow aerobically; approved standard-fifth edition. NCCLS document M7-A5 [ISBN 1-56238-394-9]. NCCLS, 940 West Valley Road, Suite 1400, Wayne, Pa. 19087-1898 USA, 2000). The bacterial microbes are cultivated on 1.5% agar plates which contain 20% defibrinated horse blood. The test microbes, which are incubated overnight on Columbia blood agar plates (Becton-Dickinson), are diluted in PBS, adjusted to a microbe count of about 5×10^5 microbes/ml and placed dropwise (1-3 μl) on test plates. The test substances comprise different dilutions of the test substances (1:2 dilution steps). The cultures are incubated at 37° C. in the presence of 5% CO2 for 18-24 hours.
(§6) The lowest substance concentration in each case at which no visible bacterial growth occurred any more is defined as the MIC and is reported in μg/ml.

S. aureus T17 = assay: Minimum inhibitory concentration (MIC), biphenomycin-resistant S. aureus T17; type: cell-based; settings: Staphylococcus aureus; biphenomycin-resistant S. aureus T17; read-out: MIC S. aureus T17
Experimental: as §1, §2, §3, §4, §5, §6
The S. aureus strain T17 is isolated in vivo. CFW1 mice are infected intraperitoneally with 4×10^7 S. aureus 133 cells per mouse. 0.5 h after the infection, the animals are treated intravenously with 50 mg/kg biphenomycin B. The kidneys are removed from the surviving animals on day 3 after the infection. After homogenization of the organs, the homogenates are plated out as described for RN4220Bi^R on antibiotic-free and antibiotic-containing agar plates and incubated at 37° C. overnight. […] About 20 of these colonies are tested for the biphenomycin B MIC, and a colony with a MIC of >50 μM is selected for further cultivation, and the strain is referred to as T17.

[2] = system: Enterococcus faecium L4001; assay: Minimum inhibitory concentration (MIC), E. faecium L4001; type: cell-based; settings: Enterococcus faecium
Experimental: as §1, §2, §3, §4, §5, §6

[3] = target: S. aureus 133 Translation; assay: S. aureus in vitro transcription-translation assay (firefly luciferase, S30 extract); type: biochemical; settings: 50% inhibition of the translation of firefly luciferase
Description: In Vitro Transcription-Translation with S. aureus Extracts
Construction of an S. aureus luciferase Reporter Plasmid
In order to construct a reporter plasmid which can be used in an in vitro transcription-translation assay from S. aureus the plasmid pBESTluc (Promega Corporation, USA) is used. The E. coli tac promoter present in this plasmid in front of the firefly luciferase is replaced with the capA1 promoter with appropriate Shine-Dalgarno sequence from S. aureus. The primers CAPFor 5′-CGGCCAAGCTTACTC-[…] […]-3′ and CAPRev 5′-[…]-3′ are used for this. The primer CAPFor contains the capA1 promoter, the ribosome binding site and the 5′ region of the luciferase gene. After PCR using pBESTluc as template it is possible to isolate a PCR product which contains the firefly luciferase gene with the fused capA1 promoter. This is, after restriction with ClaI and HindIII, ligated into the vector pBESTluc which has likewise been digested with ClaI and HindIII. The resulting plasmid p1a can be replicated in E. coli and can be used as template in the S. aureus in vitro transcription-translation test.
Preparation of S30 Extracts from S. aureus
Six litres of BHI medium are inoculated with a 250 ml overnight culture of an S. aureus strain and allowed to grow at 37° C. until the OD600 nm is 2-4. The cells are harvested by centrifugation and washed in 500 ml of cold buffer A (10 mM Tris acetate, pH 8.0, 14 mM magnesium acetate, 1 mM DTT, 1 M KCl). After renewed centrifugation, the cells are washed in 250 ml of cold buffer A with 50 mM KCl, and the resulting pellets are frozen at −20° C. for 60 min. The pellets are thawed on ice in 30 to 60 min and taken up to a total volume of 99 ml in buffer B (10 mM Tris acetate, pH 8.0, 20 mM magnesium acetate, 1 mM DTT, 50 mM KCl). 1.5 ml portions of lysostaphin (0.8 mg/ml) in buffer B are introduced into 3 precooled centrifuge cups and mixed with 33 ml of the cell suspension each. The samples are incubated at 37° C., shaking occasionally, for 45 to 60 min, before 150 μl of a 0.5 M DTT solution are added. The lysed cells are centrifuged at 30 000×g and 4° C. for 30 min. The cell pellet is taken up in buffer B and then centrifuged again under the same conditions, and the collected supernatants are combined. The supernatants are centrifuged again under the same conditions, and 0.25 volumes of buffer C (670 mM Tris acetate, pH 8.0, 20 mM magnesium acetate, 7 mM Na3 phosphoenolpyruvate, 7 mM DTT, 5.5 mM ATP, 70 μM amino acids (complete from Promega), 75 μg of pyruvate kinase (Sigma, Germany))/ml are added to the upper ⅔ of the supernatant. The samples are incubated at 37° C. for 30 min. The supernatants are dialysed against 2 l of dialysis buffer (10 mM Tris acetate, pH 8.0, 14 mM magnesium acetate, 1 mM DTT, 60 mM potassium acetate) in a dialysis tube with a 3500 Da cut-off with one buffer change at 4° C. overnight. The dialysate is concentrated to a protein concentration of about 10 mg/ml by covering the dialysis tube with cold PEG 8000 powder (Sigma, Germany) at 4° C. The S30 extracts can be stored in aliquots at −70° C.
Determination of the IC50 in the S. aureus In Vitro Transcription-Translation Assay
The inhibition of protein biosynthesis of the compounds can be shown in an in vitro transcription-translation assay. The assay is based on the cell-free transcription and translation of firefly luciferase using the reporter plasmid p1a as template and cell-free S30 extracts obtained from S. aureus. The activity of the resulting luciferase can be detected by luminescence measurement.
The amount of S30 extract or plasmid p1a to be employed must be tested anew for each preparation in order to ensure an optimal concentration in the assay. 3 μl of the substance to be tested, dissolved in 5% DMSO, are provided in an MTP. Then […] of a suitably concentrated plasmid solution p1a are added. […]

S. aureus 133 [4] = assay: Systemic infection with S. aureus 133 (mouse sepsis model); type: in vivo, mouse (female CFW1); settings: i.p. infection, i.v. therapy 30 minutes after infection, survival recorded for 6 days
Experimental: Systemic Infection with S. aureus 133
The suitability of the compounds of the invention for the treatment of bacterial infections can be shown in various animal models. For this purpose, the animals are generally infected with a suitable virulent microbe and then treated with the compound to be tested, which is present in a formulation which is adapted to the particular therapy model.
For this purpose, S. aureus 133 cells are cultured overnight in BH broth (Oxoid, Germany). The overnight culture was diluted 1:100 in fresh BH broth and expanded for 3 hours. The bacteria which are in the logarithmic phase of growth are centrifuged and washed twice with buffered physiological saline solution. A cell suspension in saline solution with an extinction of 50 units is then adjusted in a photometer (Dr Lange LP 2W). After a dilution step (1:15), this suspension is mixed 1:1 with a 10% mucine suspension. 0.2 ml of this infection solution is administered i.p. per 20 g of mouse. This corresponds to a cell count of about 1-2×10^6 microbes/mouse. The i.v. therapy takes place 30 minutes after the infection. Female CFW1 mice are used for the infection experiment. The survival of the animals is recorded for 6 days. The animal model is adjusted so that untreated animals die within 24 h after the infection.

[5] = Staphylococcus aureus, 133, read-out: MIC S. aureus 133
[6] = L4001, read-out: MIC E. faecium L4001
[7] = Staphylococcus aureus, 133; read-out: MIC S. aureus 133
[8] = E. faecium L4001, test medium with 10% FCS, read-out: MIC E. faecium L4001

Row | SMILES | MIC (S. aureus 133 [1]; [5]) [µg/mL] | MIC (S. aureus T17) [µg/mL] | MIC [2, 6] [µg/mL] | IC50 [3] [µM] | ED100 (therapeutic effect) (S. aureus 133 [4]) [mg/kg] | MIC (S. aureus 133 [1]; [7]) [µg/mL] | MIC [2, 8] [µg/mL]
1 | NCCC[C@@H]1NC(=O)[C@@H](N)Cc2cc(ccc2O)-c2ccc(O)c(c2)C[C@@H](C(=O)N2CCC[C@H]2C(=O)N[C@@H](CCCN)C(=O)NCCN)NC1=O [Example 1, 1-{[(8S,11S,14S)-14-Amino-11-(3-aminopropyl)-5,17-dihydroxy-10,13-dioxo-9,12-diazatricyclo[14.3.1.1^2,6]henicosa-1(20),2(21),3,5,16,18-hexaen-8-yl]carbonyl}-L-prolyl-N-(2-aminoethyl)-L-ornithinamide tetrahydrochloride] | 1 | 4 | 2 | 0.7 |  |  | 
2 | NCCC[C@@H]1NC(=O)[C@@H](N)Cc2cc(ccc2O)-c2ccc(O)c(c2)C[C@@H](C(=O)N2CCC[C@H]2C(=O)N[C@@H](CCCN)C(=O)NCCN)NC1=O.O=C(O)C(F)(F)F.O=C(O)C(F)(F)F.O=C(O)C(F)(F)F.O=C(O)C(F)(F)F [Example 2, 1-{[(8S,11S,14S)-14-Amino-11-(3-aminopropyl)-5,17-dihydroxy-10,13-dioxo-9,12-diazatricyclo[14.3.1.1^2,6]henicosa-1(20),2(21),3,5,16,18-hexaen-8-yl]carbonyl}-L-prolyl-N-(2-aminoethyl)-L-ornithinamide tetra(hydrotrifluoroacetate)] |  |  |  |  | 1.25 |  | 
3 | CNCCN(CCN)C(=O)[C@@H]1Cc2cc(ccc2O)-c2ccc(O)c(c2)C[C@H](N)C(=O)N[C@@H](CCCN)C(=O)N1 [Example 3, (8S,11S,14S)-14-Amino-N-(2-aminoethyl)-11-(3-aminopropyl)-5,17-dihydroxy-N-[2-(methylamino)ethyl]-10,13-dioxo-9,12-diazatricyclo[14.3.1.1^2,6]henicosa-1(20),2(21),3,5,16,18-hexaene-8-carboxamide tetrahydrochloride] | 2 | 4 | 8 | 0.8 |  |  | 
4 | NCCC[C@@H]1NC(=O)[C@@H](N)Cc2cc(ccc2O)-c2ccc(O)c(c2)C[C@@H](C(=O)N(CCN)CCO)NC1=O [Example 6] |  | 4 (≈ 7.37 µM) |  | 0.7 |  | 2 (≈ 3.69 µM) | 4 (≈ 7.37 µM)
5 | NCCC[C@@H]1NC(=O)[C@@H](N)Cc2cc(ccc2O)-c2ccc(O)c(c2)C[C@@H](C(=O)N(CCN)CC(O)CN)NC1=O (stereo partly drawn) [Example 8] |  | 4 (≈ 7 µM) |  | 0.25 |  | 1 (≈ 1.75 µM) | 16 (≈ 28 µM)
6 | NCCC[C@@H]1NC(=O)[C@@H](N)Cc2cc(ccc2O)-c2ccc(O)c(c2)C[C@@H](C(=O)N(CCN)CC2CCCCN2)NC1=O (stereo partly drawn) [Example 9] |  | 2 (≈ 3.36 µM) |  | 0.33 |  | 4 (≈ 6.71 µM) | 32 (≈ 53.7 µM)

Source: patent publication US20080300231A1, “Antibacterial amide macrocycles VI” (priority 2005, published 2008)
